Measurements reported in patent US20260347338A1, “PYRIMIDINE/PYRIDINE DERIVATIVES OR SALTS THEREOF AND PHARMACEUTICAL COMPOSITIONS COMPRISING THE SAME” (YUHAN CORPORATION, priority 2023, published 2026).
Where a name gives a salt, the structure may show the parent alone.

target: T1, human recombinant HPK1 (Homo sapiens, UniProt Q92918); test: Inhibitory activity against human recombinant HPK1 (TR-FRET); format: biochemical; conditions: ULight-p70S6K peptide, ATP at Km, room temperature, 1 hour, 0.32 to 1000 nM compound
T1 construct: purchased BPS Bioscience
How it was run: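 Recombinant human HPK1 with ULight-p70S6K peptide and ATP at Km, 1 h at room temperature in HEPES pH 7.4 buffer with Mg2+, Mn2+, EGTA, DTT; compounds 0.32–1000 nM final. EDTA stop, Eu-anti-phosphopeptide TR-FRET read (665 nm); IC50 from % inhibition versus DMSO, binned A–D at 10, 50, 100 nM.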

T1 sequence (Q92918 whole entry): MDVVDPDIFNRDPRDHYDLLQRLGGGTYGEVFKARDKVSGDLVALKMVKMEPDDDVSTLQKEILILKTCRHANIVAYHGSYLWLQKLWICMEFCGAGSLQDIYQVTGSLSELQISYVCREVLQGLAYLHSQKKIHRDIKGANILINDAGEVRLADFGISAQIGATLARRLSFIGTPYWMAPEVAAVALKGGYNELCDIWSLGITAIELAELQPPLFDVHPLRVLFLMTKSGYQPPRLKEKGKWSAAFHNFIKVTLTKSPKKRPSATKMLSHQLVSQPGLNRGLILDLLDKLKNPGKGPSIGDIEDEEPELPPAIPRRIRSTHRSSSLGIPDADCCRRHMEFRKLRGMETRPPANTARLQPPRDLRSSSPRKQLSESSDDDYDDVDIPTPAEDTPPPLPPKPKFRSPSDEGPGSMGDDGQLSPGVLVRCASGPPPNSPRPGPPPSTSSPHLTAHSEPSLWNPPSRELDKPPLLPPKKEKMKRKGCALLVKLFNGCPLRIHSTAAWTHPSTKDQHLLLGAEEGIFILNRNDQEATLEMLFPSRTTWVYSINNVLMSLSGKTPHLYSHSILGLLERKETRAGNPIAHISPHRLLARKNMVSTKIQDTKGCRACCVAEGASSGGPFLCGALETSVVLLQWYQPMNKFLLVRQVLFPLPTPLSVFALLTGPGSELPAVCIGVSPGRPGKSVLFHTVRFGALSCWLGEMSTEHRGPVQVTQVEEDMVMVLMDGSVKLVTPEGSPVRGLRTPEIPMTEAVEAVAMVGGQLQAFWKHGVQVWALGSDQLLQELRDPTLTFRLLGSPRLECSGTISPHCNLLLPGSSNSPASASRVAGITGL

Row | Structure (SMILES) | IC50 [nM]
1 | COc1cc(F)cc(F)c1-c1nccc(Nc2cc(N3C[C@@H](N)C[C@@H](F)C3)c(-c3cnn(C(C)C)c3)cn2)n1 [Example 335, N-(4-((3S,5R)-3-amino-5-fluoropiperidin-1-yl)-5-(1-isopropyl-1H-pyrazol-4-yl)pyridin-2-yl)-2-(2,4-difluoro-6-methoxyphenyl)pyrimidin-4-amine] | ≤ 10
2 | COc1cc(C(=O)N(C)C)cc(F)c1-c1nccc(Nc2cc(N3CCC[C@H](N)C3)c(-c3cnn(C(F)F)c3)cn2)n1 [Example 187, (S)-4-(4-((4-(3-aminopiperidin-1-yl)-5-(1-(difluoromethyl)-1H-pyrazol-4-yl)pyridin-2-yl)amino)pyrimidin-2-yl)-3-fluoro-5-methoxy-N,N-dimethylbenzamide hydrochloride] | ≤ 10
3 | N[C@H]1CCCN(c2cc(Nc3ccnc(-c4c(F)cccc4CO)n3)ncc2-c2cnn(C(F)F)c2)C1 [Example 242, (S)-(2-(4-((4-(3-aminopiperidin-1-yl)-5-(1-(difluoromethyl)-1H-pyrazol-4-yl)pyridin-2-yl)amino)pyrimidin-2-yl)-3-fluorophenyl)methanol hydrochloride] | ≤ 10
4 | COc1cccc(F)c1-c1nccc(Nc2cc(N3CCC[C@H](C)C3)c(-c3cnn(C(F)F)c3)cn2)n1 [Example 271, (S)-N-(5-(1-(difluoromethyl)-1H-pyrazol-4-yl)-4-(3-methylpiperidin-1-yl)pyridin-2-yl)-2-(2-fluoro-6-methoxyphenyl)pyrimidin-4-amine] | ≤ 10
5 | COc1cc(F)cc(F)c1-c1nc(Nc2cc(N3CCC[C@H](N)C3)c(-c3cnn(CC(F)(F)F)c3)cn2)ccc1C#N [Example 320, 6-((4-((S)-3-aminopiperidin-1-yl)-5-(1-(2,2,2-trifluoroethyl)-1H-pyrazol-4-yl)pyridin-2-yl)amino)-2-(2,4-difluoro-6-methoxyphenyl)nicotinonitrile hydrochloride] | ≤ 10
6 | COc1cccc(F)c1-c1nccc(Nc2cc(N3CCC[C@H](O)C3)c(-c3ccc4nccn4c3)cn2)n1 [Example 61, (S)-1-(2-((2-(2-fluoro-6-methoxyphenyl)pyrimidin-4-yl)amino)-5-(imidazo[1,2-a]pyridin-6-yl)pyridin-4-yl)piperidin-3-ol] | 10 to 50
7 | COc1cccc(F)c1-c1nccc(Nc2cc(N3CCC[C@H](O)C3)c(-c3ccc(CN4CC[C@H](F)C4)nc3)cn2)n1 [Example 39, (S)-1-(6-((2-(2-fluoro-6-methoxyphenyl)pyrimidin-4-yl)amino)-6′-(((S)-3-fluoropyrrolidin-1-yl)methyl)-[3,3′-bipyridin]-4-yl)piperidin-3-ol] | ≤ 10
8 | COc1cccc(F)c1-c1nccc(Nc2cc(N3CC[C@H](NC(C)=O)C3)c(-c3cnn(C4CCOCC4)c3)cn2)n1 [Example 128, (S)-N-(1-(2-((2-(2-fluoro-6-methoxyphenyl)pyrimidin-4-yl)amino)-5-(1-(tetrahydro-2H-pyran-4-yl)-1H-pyrazol-4-yl)pyridin-4-yl)pyrrolidin-3-yl)acetamide] | > 100
9 | COc1cccc(F)c1-c1nccc(Nc2cc(N3CC[C@H](OC)[C@H](N)C3)c(-c3cnn(C(F)F)c3)cn2)n1 [Example 253, N-(4-((3R,4S)-3-amino-4-methoxypiperidin-1-yl)-5-(1-(difluoromethyl)-1H-pyrazol-4-yl)pyridin-2-yl)-2-(2-fluoro-6-methoxyphenyl)pyrimidin-4-amine] | ≤ 10
10 | COc1cccc(F)c1-c1nccc(Nc2cc(N3CCC[C@H](N)C3)c(-c3ccc(N4CCOCC4)nc3)cn2)n1 [Example 121, (S)-4-(3-aminopiperidin-1-yl)-N-(2-(2-fluoro-6-methoxyphenyl)pyrimidin-4-yl)-6′-morpholino-[3,3′-bipyridin]-6-amine hydrochloride] | ≤ 10
11 | COc1cccc(F)c1-c1nc(Nc2cc(N3CCC[C@H](O)C3)c(-c3cnn(C(F)F)c3)cn2)ccc1C(N)=O [Example 142, 6-((5-(1-(difluoromethyl)-1H-pyrazol-4-yl)-4-((S)-3-hydroxypiperidin-1-yl)pyridin-2-yl)amino)-2-(2-fluoro-6-methoxyphenyl)nicotinamide] | ≤ 10
12 | COC(=O)c1ccc(Nc2cc(N3CCC[C@H](O)C3)c(-c3cnn(C4CCOCC4)c3)cn2)nc1-c1c(F)cccc1OC [Example 60, methyl 2-(2-fluoro-6-methoxyphenyl)-6-((4-((S)-3-hydroxypiperidin-1-yl)-5-(1-(tetrahydro-2H-pyran-4-yl)-1H-pyrazol-4-yl)pyridin-2-yl)amino)nicotinate] | ≤ 10
13 | COc1cccc(F)c1-c1nccc(Nc2cc(N3CCC[C@H](N)C3)c(-c3ccc(N4CCOCC4)cc3)cn2)n1 [Example 286, (S)-N-(4-(3-aminopiperidin-1-yl)-5-(4-morpholinophenyl)pyridin-2-yl)-2-(2-fluoro-6-methoxyphenyl)pyrimidin-4-amine hydrochloride] | ≤ 10
14 | COc1cccc(F)c1-c1nccc(Nc2cc(N3CCC[C@H](O)C3)c(-c3cnn(C4CCOC4)c3)cn2)n1 (stereo partly drawn) [Example 14, (3S)-1-(2-((2-(2-fluoro-6-methoxyphenyl)pyrimidin-4-yl)amino)-5-(1-(tetrahydrofuran-3-yl)-1H-pyrazol-4-yl)pyridin-4-yl)piperidin-3-ol] | ≤ 10
15 | CCNC(=O)Nc1ccc(-c2cnc(Nc3ccnc(-c4c(F)cccc4OC)n3)cc2N2CCC[C@H](N)C2)cn1 [Example 250, (S)-1-(4′-(3-aminopiperidin-1-yl)-6′-((2-(2-fluoro-6-methoxyphenyl)pyrimidin-4-yl)amino)-[3,3′-bipyridin]-6-yl)-3-ethylurea hydrochloride] | ≤ 10
16 | COc1cccc(F)c1-c1nc(Nc2cc(N3CCC[C@H](N)C3)c(-c3cnn(C(F)F)c3)cn2)ccc1N [Example 151, N^2-(4-((S)-3-aminopiperidin-1-yl)-5-(1-(difluoromethyl)-1H-pyrazol-4-yl)pyridin-2-yl)-6-(2-fluoro-6-methoxyphenyl)pyridin-2,5-diamine hydrochloride] | ≤ 10
17 | COc1cccc(F)c1-c1nccc(Nc2cc(N3CCC[C@H](N)C3)c(-c3cnn(CC(F)(F)F)c3)nn2)n1 [Example 175, (S)-5-(3-aminopiperidin-1-yl)-N-(2-(2-fluoro-6-methoxyphenyl)pyrimidin-4-yl)-6-(1-(2,2,2-trifluoroethyl)-1H-pyrazol-4-yl)pyridazin-3-amine hydrochloride] | ≤ 10
18 | COC(=O)C(C)(C)n1cc(-c2cnc(Nc3ccnc(-c4c(F)cccc4OC)n3)cc2N2CCC[C@H](N)C2)cn1 [Example 278, methyl (S)-2-(4-(4-(3-aminopiperidin-1-yl)-6-((2-(2-fluoro-6-methoxyphenyl)pyrimidin-4-yl)amino)pyridin-3-yl)-1H-pyrazol-1-yl)-2-methylpropanoate hydrochloride] | ≤ 10
19 | COc1cccc(F)c1-c1nccc(Nc2cc(N3CCC4(CCN(C)C4)CC3)c(-c3ccc(N4CCOCC4)nc3)cn2)n1 [Example 137, N-(2-(2-fluoro-6-methoxyphenyl)pyrimidin-4-yl)-4-(2-methyl-2,8-diazaspiro[4.5]decan-8-yl)-6′-morpholino-[3,3′-bipyridin]-6-amine] | ≤ 10
20 | O[C@H]1CCCN(c2cc(Nc3ccnc(-c4c(F)cccc4F)n3)ncc2-c2cnn(C3CCOCC3)c2)C1 [Example 22, (S)-1-(2-((2-(2,6-difluorophenyl)pyrimidin-4-yl)amino)-5-(1-(tetrahydro-2H-pyran-4-yl)-1H-pyrazol-4-yl)pyridin-4-yl)piperidin-3-ol] | ≤ 10
21 | COc1cccc(F)c1-c1nc(Nc2cc(N3CCC[C@H](O)C3)c(-c3cnn(C4CCOCC4)c3)cn2)ccc1C(=O)N(C)C [Example 113, 2-(2-fluoro-6-methoxyphenyl)-6-((4-((S)-3-hydroxypiperidin-1-yl)-5-(1-(tetrahydro-2H-pyran-4-yl)-1H-pyrazol-4-yl)pyridin-2-yl)amino)-N,N-dimethylnicotinamide] | 10 to 50
22 | COc1cccc(F)c1-c1nccc(Nc2cc(N3CCC[C@H](N)C3)c(-c3cccc(C(C)=O)c3)cn2)n1 [Example 291, (S)-1-(3-(4-(3-aminopiperidin-1-yl)-6-((2-(2-fluoro-6-methoxyphenyl)pyrimidin-4-yl)amino)pyridin-3-yl)phenyl)ethan-1-one hydrochloride] | ≤ 10
23 | COc1cccc(F)c1-c1nccc(Nc2cc(N3CCC[C@H](N)C3)c(-c3cnn(CCN4CCOCC4)c3)cn2)n1 [Example 162, (S)-N-(4-(3-aminopiperidin-1-yl)-5-(1-(2-morpholinoethyl)-1H-pyrazol-4-yl)pyridin-2-yl)-2-(2-fluoro-6-methoxyphenyl)pyrimidin-4-amine hydrochloride] | ≤ 10
24 | COc1cccc(F)c1-c1nccc(Nc2cc(N3CCC[C@H](N)C3)c(-c3cnn(C4CCN(C)CC4)c3)cn2)n1 [Example 74, (S)-N-(4-(3-aminopiperidin-1-yl)-5-(1-(1-methylpiperidin-4-yl)-1H-pyrazol-4-yl)pyridin-2-yl)-2-(2-fluoro-6-methoxyphenyl)pyrimidin-4-amine hydrochloride] | ≤ 10
25 | COc1cccc(F)c1-c1nccc(Nc2cc(N3C[C@@H](N)CC[C@H]3C)c(-c3cnn(C(F)F)c3)cn2)n1 [Example 252, N-(4-((2R,5S)-5-amino-2-methylpiperidin-1-yl)-5-(1-(difluoromethyl)-1H-pyrazol-4-yl)pyridin-2-yl)-2-(2-fluoro-6-methoxyphenyl)pyrimidin-4-amine] | ≤ 10
26 | COc1cc(F)cc(F)c1-c1nc(Nc2cc(N3CCC[C@H](O)C3)c(-c3cnn(CC(F)(F)F)c3)cn2)ccc1C#N [Example 317, 2-(2,4-difluoro-6-methoxyphenyl)-6-((4-((S)-3-hydroxypiperidin-1-yl)-5-(1-(2,2,2-trifluoroethyl)-1H-pyrazol-4-yl)pyridin-2-yl)amino)nicotinonitrile] | ≤ 10
